This passage reports IC50 results from patent US11878975B2, “Substituted indole compounds useful as TLR inhibitors” (BRISTOL-MYERS SQUIBB COMPANY, priority 2017, dated 2024).

Holding throughout (format): cell-based
The target in one test is T1, human TLR9 (Homo sapiens, UniProt Q9NR96).
T1 construct: host or cells: HEK-Blue cells
T1 sequence (Q9NR96 26-1032): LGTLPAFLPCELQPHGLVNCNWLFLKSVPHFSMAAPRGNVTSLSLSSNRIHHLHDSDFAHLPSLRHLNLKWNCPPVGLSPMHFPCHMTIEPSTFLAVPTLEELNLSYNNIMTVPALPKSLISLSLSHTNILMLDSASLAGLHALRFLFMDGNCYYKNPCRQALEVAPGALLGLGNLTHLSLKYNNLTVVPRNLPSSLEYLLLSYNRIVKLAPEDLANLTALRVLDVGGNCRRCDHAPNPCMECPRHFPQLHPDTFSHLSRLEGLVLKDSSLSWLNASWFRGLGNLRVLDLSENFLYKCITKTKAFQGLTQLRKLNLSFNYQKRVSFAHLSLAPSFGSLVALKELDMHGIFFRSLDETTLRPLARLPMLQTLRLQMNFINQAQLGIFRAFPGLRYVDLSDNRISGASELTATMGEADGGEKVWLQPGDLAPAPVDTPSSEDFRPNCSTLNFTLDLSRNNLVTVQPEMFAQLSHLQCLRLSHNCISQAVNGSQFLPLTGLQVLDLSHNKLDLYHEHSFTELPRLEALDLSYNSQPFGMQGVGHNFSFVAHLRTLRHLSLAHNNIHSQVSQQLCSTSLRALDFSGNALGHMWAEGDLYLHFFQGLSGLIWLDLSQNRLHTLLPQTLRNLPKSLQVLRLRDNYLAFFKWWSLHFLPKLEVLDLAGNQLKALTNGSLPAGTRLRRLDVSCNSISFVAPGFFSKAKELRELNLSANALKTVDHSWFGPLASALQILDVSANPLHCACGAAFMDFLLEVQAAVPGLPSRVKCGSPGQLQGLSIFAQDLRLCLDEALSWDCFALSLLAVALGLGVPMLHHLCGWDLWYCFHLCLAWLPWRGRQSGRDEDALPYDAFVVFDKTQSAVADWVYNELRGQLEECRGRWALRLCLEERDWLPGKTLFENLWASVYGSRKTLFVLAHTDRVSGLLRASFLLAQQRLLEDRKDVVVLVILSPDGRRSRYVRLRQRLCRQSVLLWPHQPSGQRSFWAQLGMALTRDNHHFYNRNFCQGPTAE
In words: TLR9 inhibition reporter assay (HEK-Blue cells, SEAP reporter, ODN2006 stimulation). The following applies: HEK-Blue cells overexpressing human TLR9, SEAP reporter, ODN2006 5 nM. The method in brief: (§1)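 SEAP readout after 22 h agonist exposure at 37 °C; final agonist levels were 7.5 μM gardiquimod (TLR7), 15.9 μM R848 (TLR8) and 5 nM ODN2006 (TLR9). Inhibitors, spanning 0.05 nM to 50 μM final, were applied 30 min beforehand.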
(Reporter assays use an easily measured gene product as a stand-in for the process of interest.)

For another test, the target named is T2, human TLR7 (Homo sapiens, UniProt Q9NYK1).
T2 construct: host or cells: HEK-Blue cells
T2 sequence (Q9NYK1 27-1049): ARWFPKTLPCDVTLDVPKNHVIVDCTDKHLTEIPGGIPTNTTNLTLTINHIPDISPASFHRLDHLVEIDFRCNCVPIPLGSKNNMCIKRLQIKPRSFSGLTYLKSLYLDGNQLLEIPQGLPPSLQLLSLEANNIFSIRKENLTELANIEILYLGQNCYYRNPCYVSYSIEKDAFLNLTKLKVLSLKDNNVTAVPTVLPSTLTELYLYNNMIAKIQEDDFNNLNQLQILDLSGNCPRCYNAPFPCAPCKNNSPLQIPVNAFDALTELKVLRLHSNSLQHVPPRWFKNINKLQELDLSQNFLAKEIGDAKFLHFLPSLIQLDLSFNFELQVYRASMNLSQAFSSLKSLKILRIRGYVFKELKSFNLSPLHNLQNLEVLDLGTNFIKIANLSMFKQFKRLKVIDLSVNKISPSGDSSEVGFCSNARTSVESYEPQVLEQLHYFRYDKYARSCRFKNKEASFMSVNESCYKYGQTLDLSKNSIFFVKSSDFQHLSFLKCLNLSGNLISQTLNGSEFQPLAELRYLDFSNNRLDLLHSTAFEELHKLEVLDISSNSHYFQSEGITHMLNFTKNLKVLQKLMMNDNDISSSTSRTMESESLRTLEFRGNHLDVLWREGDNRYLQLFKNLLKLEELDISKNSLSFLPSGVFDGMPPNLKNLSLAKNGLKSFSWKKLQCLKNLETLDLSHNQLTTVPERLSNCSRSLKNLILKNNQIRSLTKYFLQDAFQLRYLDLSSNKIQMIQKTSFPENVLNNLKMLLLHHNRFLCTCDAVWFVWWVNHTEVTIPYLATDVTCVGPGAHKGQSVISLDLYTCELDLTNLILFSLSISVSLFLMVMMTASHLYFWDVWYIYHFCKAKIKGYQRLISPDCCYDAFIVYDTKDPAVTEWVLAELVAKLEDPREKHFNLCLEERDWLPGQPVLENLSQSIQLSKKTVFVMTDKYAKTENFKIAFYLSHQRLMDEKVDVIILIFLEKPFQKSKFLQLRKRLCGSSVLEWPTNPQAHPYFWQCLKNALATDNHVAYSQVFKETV
Nature of the test: TLR7 inhibition reporter assay (HEK-Blue cells, SEAP reporter, gardiquimod stimulation). The following applies: HEK-Blue cells overexpressing human TLR7, SEAP reporter, gardiquimod 7.5 μM. The method in brief: as §1

In the next test the target is T3, human TLR8 (Homo sapiens, UniProt Q9NR97).
T3 construct: host or cells: HEK-Blue cells
T3 sequence (Q9NR97 27-1041): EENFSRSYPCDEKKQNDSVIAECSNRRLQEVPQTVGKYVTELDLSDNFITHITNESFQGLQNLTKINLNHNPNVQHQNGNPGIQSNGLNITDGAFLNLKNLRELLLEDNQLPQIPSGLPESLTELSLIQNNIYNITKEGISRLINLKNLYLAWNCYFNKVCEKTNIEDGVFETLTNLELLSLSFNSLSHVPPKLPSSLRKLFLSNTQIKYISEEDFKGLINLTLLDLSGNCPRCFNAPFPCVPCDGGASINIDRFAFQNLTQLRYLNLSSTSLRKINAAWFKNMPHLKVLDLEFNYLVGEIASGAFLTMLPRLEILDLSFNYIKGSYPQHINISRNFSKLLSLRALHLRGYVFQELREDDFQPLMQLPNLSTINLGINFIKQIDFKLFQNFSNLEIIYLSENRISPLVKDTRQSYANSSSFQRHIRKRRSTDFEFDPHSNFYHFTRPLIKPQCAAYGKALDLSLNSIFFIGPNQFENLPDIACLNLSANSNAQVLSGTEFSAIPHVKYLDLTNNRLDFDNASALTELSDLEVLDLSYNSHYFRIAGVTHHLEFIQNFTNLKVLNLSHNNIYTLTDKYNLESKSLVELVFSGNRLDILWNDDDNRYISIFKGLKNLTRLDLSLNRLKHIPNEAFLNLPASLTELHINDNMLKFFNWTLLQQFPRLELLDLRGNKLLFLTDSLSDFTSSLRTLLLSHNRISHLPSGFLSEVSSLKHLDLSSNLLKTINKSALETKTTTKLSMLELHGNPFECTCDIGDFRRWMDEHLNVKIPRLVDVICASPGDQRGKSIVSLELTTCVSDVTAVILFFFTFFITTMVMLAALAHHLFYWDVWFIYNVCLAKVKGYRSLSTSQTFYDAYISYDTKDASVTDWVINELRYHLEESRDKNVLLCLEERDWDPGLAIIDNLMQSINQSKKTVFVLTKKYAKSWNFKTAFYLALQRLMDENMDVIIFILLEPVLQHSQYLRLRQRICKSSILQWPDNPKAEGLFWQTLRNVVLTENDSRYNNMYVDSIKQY
Nature of the test: TLR8 inhibition reporter assay (HEK-Blue cells, SEAP reporter, R848 stimulation). The settings on record: HEK-Blue cells overexpressing human TLR8, SEAP reporter, R848 15.9 μM. In outline: as §1

With `Cc1cc(-c2[nH]c3ccc(C4CN(C)C(C)(C)CO4)cc3c2C(C)C)cn2ncnc12` (single isomer, unassigned) [Example 375, 2-(3-isopropyl-2-(8-methyl-[1,2,4]triazolo[1,5-a]pyridin-6-yl)-1H-indol-5-yl)-4,5,5-trimethylmorpholine], the IC50 stood at 2060 nM against human TLR9, 1 nM against human TLR7 and 4.7 nM against human TLR8.

`Cc1cc(-c2[nH]c3ccc(C4CN(C)C(C)(C)CO4)cc3c2C(C)C)cn2ncnc12` (single isomer, unassigned) [Example 376, 2-(3-isopropyl-2-(8-methyl-[1,2,4]triazolo[1,5-a]pyridin-6-yl)-1H-indol-5-yl)-4,5,5-trimethylmorpholine]: the half-maximal inhibitory concentration (IC50) against human TLR9 was found to be 2670 nM; on human TLR7 it was 2 nM; on human TLR8, 2.1 nM.

For the compound `Cc1cc(-c2[nH]c3ccc(C4CN(CC(=O)N(C)C)C(C)(C)CO4)cc3c2C(C)C)cn2ncnc12` (single isomer, unassigned) [Example 379, 2-(2-(3-isopropyl-2-(8-methyl-[1,2,4]triazolo[1,5-a]pyridin-6-yl)-1H-indol-5-yl)-5,5-dimethylmorpholino)-N,N-dimethylacetamide], the IC50 came to 5370 nM against human TLR9, 12 nM at human TLR7 and 70 nM on human TLR8.

Regarding `Cc1cc(-c2[nH]c3ccc(CC4CCCN4Cc4ccccc4)cc3c2C(C)C)cn2ncnc12` (single isomer, unassigned) [Example 396, 5-[(1-benzylpyrrolidin-2-yl)methyl]-2-{8-methyl-[1,2,4]triazolo[1,5-a]pyridin-6-yl}-3-(propan-2-yl)-1H-indole], the IC50 came out at 2380 nM against human TLR9, 2 nM against human TLR7 and 2.8 nM against human TLR8.

In the case of `Cc1cc(-c2[nH]c3ccc(CC4CCCN4Cc4ccccc4)cc3c2C(C)C)cn2ncnc12` (single isomer, unassigned) [Example 397, 5-[(1-benzylpyrrolidin-2-yl)methyl]-2-{8-methyl-[1,2,4]triazolo[1,5-a]pyridin-6-yl}-3-(propan-2-yl)-1H-indole], the figures for the IC50 on human TLR9, on human TLR7 and against human TLR8 were 1600 nM, 3 nM and 5.4 nM, respectively.

With `Cc1cc(-c2[nH]c3ccc(C4CCC(N)CC4)cc3c2C(C)C)cc(C)n1` (stereo not drawn) [Example 5], the half-maximal inhibitory concentration (IC50) at human TLR9 stood at 597 nM; on human TLR7 it was 1 nM; against human TLR8, 14 nM.

For the compound `COc1cc(-c2[nH]c3ccc(C4CCC(NC5CC5)CC4)cc3c2C(C)C)cn2ncnc12` (stereo not drawn) [Example 10], the IC50 at human TLR9 came to 1260 nM; at human TLR7, 0.17 nM; on human TLR8 it was 0.47 nM.

As for `COc1cc(-c2[nH]c3ccc(C4CCC(NC5CC5)CC4)cc3c2C(C)C)cn2ncnc12` (stereo not drawn) [Example 11], the 50% inhibitory concentration (IC50) against human TLR9 was determined as 2070 nM; against human TLR7, 2 nM; on human TLR8, 3.7 nM.

Turning to `COc1cc(-c2[nH]c3ccc(C4CCC(N(C)C5CC5)CC4)cc3c2C(C)C)cn2ncnc12` (stereo not drawn) [Example 12], the IC50 was 2130 nM at human TLR9, 0.7 nM against human TLR7 and 1.6 nM against human TLR8.

For the compound `COc1cc(-c2[nH]c3ccc(C4CCC(N(C)C5CC5)CC4)cc3c2C(C)C)cn2ncnc12` (stereo not drawn) [Example 13], the values for the half-maximal inhibitory concentration (IC50) on human TLR9, against human TLR7 and against human TLR8 were 2810 nM, 1 nM and 4.8 nM, respectively.

For the compound `Cc1c(-c2[nH]c3ccc(C4CCC(NC5CC5)CC4)cc3c2C(C)C)cn2ncnc2c1C` (stereo not drawn) [Example 14], the half-maximal inhibitory concentration (IC50) on human TLR9 was found to be 4080 nM; on human TLR7, 5 nM; against human TLR8 it was 3.5 nM.

Regarding `Cc1c(-c2[nH]c3ccc(C4CCC(NC5CC5)CC4)cc3c2C(C)C)cn2ncnc2c1C` (stereo not drawn) [Example 17], the IC50 against human TLR9 amounted to 3530 nM; against human TLR7 it was 0.73 nM; on human TLR8, 0.7 nM.

Turning to `COc1cc(-c2[nH]c3ccc(C4CCC(N5CC(F)(F)C5)CC4)cc3c2C(C)C)cn2ncnc12` (stereo not drawn) [Example 18], the half-maximal inhibitory concentration (IC50) at human TLR9 worked out at 33600 nM; against human TLR7, 5 nM; against human TLR8, 38 nM.

For the compound `COc1cc(-c2[nH]c3ccc(C4CCC(N5CC(F)(F)C5)CC4)cc3c2C(C)C)cn2ncnc12` (stereo not drawn) [Example 19], the IC50 against human TLR9 turned out to be 29200 nM; against human TLR7, 26 nM; at human TLR8 it was 218 nM.

Take `COc1cc(-c2[nH]c3ccc(C4CCC(N5CC(F)C5)CC4)cc3c2C(C)C)cn2ncnc12` (stereo not drawn) [Example 21]: the half-inhibitory concentration (IC50) on human TLR9 was 2380 nM; on human TLR7, 0.41 nM; at human TLR8 it was 1.2 nM.

Take `COc1cc(-c2[nH]c3ccc(C4CCC(N5CC(F)C5)CC4)cc3c2C(C)C)cn2ncnc12` (stereo not drawn) [Example 23]: the IC50 against human TLR9 is 2840 nM; at human TLR7 it was 2 nM; against human TLR8, 9.2 nM.

In the case of `Cc1c(-c2[nH]c3ccc(C4CCC(N5CC(F)(F)C5)CC4)cc3c2C(C)C)cn2ncnc2c1C` (stereo not drawn) [Example 24], the figures for the IC50 at human TLR9, on human TLR7 and against human TLR8 were 24900 nM, 7 nM and 21 nM, respectively.

Turning to `Cc1c(-c2[nH]c3ccc(C4CCC(N5CC(F)(F)C5)CC4)cc3c2C(C)C)cn2ncnc2c1C` (stereo not drawn) [Example 25], the concentration for half-maximal inhibition (IC50) against human TLR9 is > 50000 nM; against human TLR7 it was 49 nM; against human TLR8, 180 nM.

The term IC50 denotes the concentration at which inhibition is half-maximal. A lower IC50 goes with higher potency.
